Data set [1] can be described thus: log P by HPLC on a reversed-phase column (C 18), EEC Directive 79/831 Annex V.A8. In kind it is physicochemical. To be noted: HPLC, reversed-phase column (C 18), 40° C., 0.1% aqueous formic acid and acetonitrile, linear gradient 10% to 90% acetonitrile. The procedure, abridged: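 Reversed-phase C18 HPLC at 40° C, 0.1% aqueous formic acid/acetonitrile gradient from 10% to 90% acetonitrile. log P derived from retention times by linear interpolation between unbranched alkan-2-ones (3–16 carbons) of known log P.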

Another data set concerns Uromyces appendiculatus. As to the kind of experiment: In vivo preventive test on Uromyces appendiculatus (bean rust). To be noted: for protection: dose of 100 and 10 ppm of active ingredient. Here is the method: In Vivo Preventive Test on Uromyces appendiculatus (Bean Rust)
(§1) Solvent: 5% by volume of Dimethyl sulfoxide • 10% by volume of Acetone
(§2) Emulsifier: 1 μL of Tween® 80 per mg of active ingredient
The active ingredients are made soluble and homogenized in a mixture of Dimethyl sulfoxide/Acetone/Tween® 80 and then diluted in water to the desired concentration.
The young plants of bean are treated by spraying the active ingredient prepared as described above. Control plants are treated only with an aqueous solution of Acetone/Dimethyl sulfoxide/Tween® 80.
After 24 hours, the plants are contaminated by spraying the leaves with an aqueous suspension of Uromyces appendiculatus spores. The contaminated bean plants are incubated for 24 hours at 20° C. and at 100% relative humidity and then for 10 days at 20° C. and at 70-80% relative humidity.
(§3) The test is evaluated 11 days after the inoculation. 0% means an efficacy which corresponds to that of the control plants while an efficacy of 100% means that no disease is observed.

The test system of a further data set is Puccinia recondita. As to the kind of experiment: In vivo preventive test on Puccinia recondita (brown rust on wheat). To be noted: for protection: dose of 100 and 10 ppm of active ingredient. As for the experimental part: In Vivo Preventive Test on Puccinia recondita (Brown Rust on Wheat)
as §1, §2
The active ingredients are made soluble and homogenized in a mixture of Dimethyl sulfoxide/Acetone//Tween® 80 and then diluted in water to the desired concentration.
The young plants of wheat are treated by spraying the active ingredient prepared as described above. Control plants are treated only with an aqueous solution of Acetone/Dimethyl sulfoxide/Tween® 80. After 24 hours, the plants are contaminated by spraying the leaves with an aqueous suspension of Puccinia recondita spores. The contaminated wheat plants are incubated for 24 hours at 20° C. and at 100% relative humidity and then for 10 days at 20° C. and at 70-80% relative humidity.
as §3

Another data set relates to Phakopsora pachyrhizi. As to the kind of experiment: In vivo preventive test on Phakopsora pachyrhizi (soybean rust). The settings on record: Table C3, dose 10 ppm. Here is the method: In Vivo Preventive Test on Phakopsora pachyrhizi (Soybean Rust)
Solvent: 24.5 parts by weight of acetone • 24.5 parts by weight of N,N-dimethylacetamide
Emulsifier: 1 part by weight of alkylaryl polyglycol ether
To produce a suitable preparation of active compound, 1 part by weight of active compound is mixed with the stated amounts of solvent and emulsifier, and the concentrate is diluted with water to the desired concentration.
To test for preventive activity, young plants are sprayed with the preparation of active compound at the stated rate of application. After the spray coating has dried on, the plants are inoculated with an aqueous spore suspension of the causal agent of soybean rust (Phakopsora pachyrhizi) and stay for 24 h without light in an incubation cabinet at approximately 24° C. and a relative atmospheric humidity of 95%.
The plants remain in the incubation cabinet at approximately 24° C. and a relative atmospheric humidity of approximately 80% and a day/night interval of 12 h.
The test is evaluated 7 days after the inoculation. 0% means an efficacy which corresponds to that of the untreated control, while an efficacy of 100% means that no disease is observed.

The logP is a log measure of how a compound divides between an organic and an aqueous phase. Read a high logP as higher lipophilicity.

For `Cn1nc(C(F)F)c(C(=O)N(Cc2cc(F)ccc2C2(C)CC2)C2CC2)c1Cl` [I.067], in data set [1], the lipophilicity (logP) is given as 4.04. The Efficacy was determined as 93% in the data set with Uromyces appendiculatus (Table B2, dose 10 ppm); 100% with Uromyces appendiculatus (Table B2, dose 100 ppm); 98% in the data set with Puccinia recondita (Table A1, dose 10 ppm); 100% in the data set on Puccinia recondita (Table A1, dose 100 ppm). The protection result with Uromyces appendiculatus and in the data set on Puccinia recondita was “at least 90%” in each case.

`Cn1nc(C(F)F)c(C(=O)N(Cc2cc(F)ccc2C2(C)CC2)C2CC2)c1F` [I.066] showed a logP in data set [1] of 3.89. Also, the Efficacy stood at 100% in the data set with Uromyces appendiculatus (Table B1, dose 10 ppm); 100% in the data set on Uromyces appendiculatus (Table B1, dose 100 ppm); 89% with Phakopsora pachyrhizi. The protection result in the data set on Uromyces appendiculatus was “total protection”.

Turning to `Cn1nc(C(F)F)c(C(=O)N(Cc2cc(F)ccc2C2(C)CC2)C2CC2)c1Cl` [I.8 from WO-2013/156559, 5-chloro-N-cyclopropyl-3-(difluoromethyl)-N-[5-fluoro-2-(1-methylcyclopropyl)benzyl]-1-methyl-1H-pyrazole-4-carboxamide, reference compound], the Efficacy in the data set with Uromyces appendiculatus (Table B2, dose 10 ppm) is listed as 14%; with Uromyces appendiculatus (Table B2, dose 100 ppm), 95%; in the data set with Puccinia recondita (Table A1, dose 10 ppm) it was 38%; in the data set with Puccinia recondita (Table A1, dose 100 ppm), 94%. Further, the figures for the protection entry in the data set with Uromyces appendiculatus (listed as I.8) and with Puccinia recondita (listed as I.8) were “total to poor (less than 20%) protection” and “total to average (less than 40%) protection”, respectively.

These data come from US10070645B2, “N-cycloalkyl-N-{[2-(1-substitutedcycloalkyl)phenyl]methylene}-(thio)carboxamide derivatives” (BAYER CROPSCIENCE AKTIENGESELLSCHAFT, priority 2013, dated 2018).
